{"source": "patent US9788546B2", "about": "“Synergistic pesticidal compositions and related methods” (DOW AGROSCIENCES LLC, priority 2013, dated 2017)", "format_in_all_cases": "in vivo", "key": {"[1]": {"tested_on": "brown stink bugs, Euschistus heros", "assay": "Field spray and mesh cage test with bifenthrin, average mortality at 1, 2, 4, and 7 days", "settings": "1, 2, 4, and 7 days after treatment", "description": "Two emulsifying concentrate pesticidal compositions with a weight ratio of compound I to bifenthrin of 1:1 were prepared. The first comprising 0.0167 weight % of compound I and about 0.0167 weight % of bifenthrin and the second comprising 0.0333 weight % compound I and 0.0333 weight % bifenthrin. The compositions were diluted and applied to the field using a spray volume of […]. The application was done using a CO2 backpack sprayer with a solid cone nozzle TXVK-8 (ConeJet). Plants were allowed to air dry and then were placed in a mesh cage where different instar stink bugs were infested in two different trials (3rd and 4th nymphal stage, and adults). Average stink bug mortality was assessed at 1, 2, 4, and 7 days after application counting the number of dead insects and calculating the percent control based on the survivorship in the untreated treatment.\nThe average percent control of the pesticidal composition against brown stink bugs, Euschistus heros, was determined as the “Average Observed” action, and compared to the average of those obtained by using about 0.0167 weight %, 0.0333 weight %, and 0.0667 weight % of compound I alone, and the average of those obtained using about 0.0167 weight % and 0.0333 weight % of bifenthrin alone. The “Colby's Expected Action” was calculated using Colby's equation as discussed previously. […]"}, "[2]": {"tested_on": "brown stink bug, Euschistus heros", "assay": "Bean piece dip bioassay, third-instar nymphs", "settings": "Compound I alone, 0.04 weight %", "description": "The active compounds were formulated in a 10% acetone solution with 0.025% non-ionic surfactant, TWEEN® 20. Bioassays were performed for each different active solution. Bean pieces (about one inch-long) were used for the tests. Four bean pieces were placed in each tested active solution and left there for 10 minutes. Bean pieces were taken out of the active solution, and each piece was placed in a well in a 32-well tray and allowed to air dry. Three third-instar nymphs of brown stink bug, Euschistus heros, were infested into each well. The percent control of the pesticidal composition against brown stink bug, Euschistus heros, was determined as the “Observed” action, and compared to those obtained by using about 0.04 weight % of compound I, and using about 0.0025 weight % of lambda-cyhalothrin alone. The “Colby's Expected Action” was calculated using Colby's equation as discussed previously."}, "[3]": {"tested_on": "brown stink bug, Euschistus servus (Say)", "assay": "Field test, backpack sprayer, natural stink bug infestation", "settings": "Compound I alone", "description": "(§1) Dyne-Amic at 0.625% V/V was used as an adjuvant in the tank mix, and the application was done using a backpack sprayer. Trial was conducted under a natural stink bug infestation. Numbers of adults and nymphs were counted four days after application in 1.82 meters of row per plot using a shake sheet (0.91 meters by 2 rows).\n(§2) The “Colby's Expected Action” was calculated using Colby's equation as discussed previously.\nas §2, §2"}, "[4]": {"tested_on": "green stink bugs, Nezara viridula", "assay": "Field test, backpack sprayer, natural stink bug infestation", "settings": "Compound I alone, 0.0306 weight %", "description": "as §1, §2"}, "[5]": {"tested_on": "brown stink bugs, Euschistus heros", "assay": "Field spray and mesh cage test with alpha-cypermethrin, average mortality at 1 and 3 days", "settings": "1 and 3 days after treatment", "description": "Two emulsifying concentrate pesticidal compositions with a weight ratio of compound I to alpha-cypermethrin of 1:1 were prepared. The first comprising 0.0167 weight % of compound I and about 0.0167 weight % of alpha-cypermethrin and the second comprising 0.0333 weight % compound I and 0.0333 weight % alpha-cypermethrin. The compositions were diluted and applied to the field using a spray volume of […]. The application was done using a CO2 backpack sprayer with a solid cone nozzle TXVK-8 (ConeJet). Plants were allowed to air dry and then were placed in a mesh cage where different instar stink bugs were infested (3rd and 4th nymphal stage, and adults). Average stink bug mortality was assessed at 1 and 3 days after application counting the number of dead insects and calculating the percent control based on the survivorship in the untreated.\nThe average percent control of the pesticidal composition against brown stink bugs, Euschistus heros, was determined as the “Average Observed” action, and compared to the average of those obtained by using about 0.0167 weight %, 0.0333 weight %, and 0.0667 weight % of compound I alone, and the average of those obtained using about 0.0167 weight % and 0.0333 weight % of alpha-cypermethrin alone. The “Colby's Expected Action” was calculated using Colby's equation as discussed previously. […]"}, "[6]": {"tested_on": "Western flower thrips, Frankliniella occidentalis (Pergande)", "assay": "Cotton leaf punch dip bioassay, mortality of nymphs", "settings": "Compound II alone, 0.04 weight %; Example 5", "description": "The active compounds were formulated in a 10% acetone solution with 0.025% non-ionic surfactant, TWEEN® 20. Cotton leaf punches were used for bioassays. Two cotton leaf punches were placed in each solution and left there for 10 minutes. Leaves were taken out of the solution, placed on a piece of filter paper in separated Petri dishes, and air dried. Each leaf disc was considered a repetition. Five nymph of Western flower thrips, Frankliniella occidentalis, were infested per repetition. The assessment of mortality was done three days after infestation. The percent control of the pesticidal composition Western flower thrips, Frankliniella occidentalis (Pergande), was determined as the “Observed” action, and compared to those obtained by using about 0.04 weight % of compound II, and using about 0.02 weight % of lambda-cyhalothrin alone. The “Colby's Expected Action” was calculated using Colby's equation as discussed previously.\nThe active compounds were formulated in a 10% acetone solution with 0.025% non-ionic surfactant, TWEEN® 20. Cotton leaf punches were used for bioassays. Two cotton leaf punches were placed in each solution and left there for 10 minutes. Leaves were taken out of the solution, placed on a piece of filter paper in separated Petri dishes, and air dried. Each leaf disc was considered a repetition. […]"}, "[7]": {"tested_on": "brown stink bug, Euschistus heros", "assay": "Diet treatment bioassay, second-instar nymphs", "settings": "Compound II alone, 0.04 weight %"}, "[8]": {"tested_on": "Lygus bug, Lygus hesperus (Knight)", "assay": "Treated string bean bioassay, four-day old nymphs", "settings": "Compound II alone, 0.04 weight %", "description": "String beans were treated with different active compounds for ten minutes. Three four-day old nymphs of Lygus bug, Lygus hesperus (Knight), were infested onto each bean sample."}, "[9]": {"tested_on": "stink bugs (Edessa meditabunda, Euschistus heros, and Piezodorus guildinii)", "settings": "Compound II alone, field test", "description": "[…] Silwet L-77 at 0.1% V/V was used as an adjuvant in the tank mix, and the application was done using a CO2 backpack sprayer. Trial was conducted under a natural stink bug infestation. […] The stink bug population consisted on about 75% Edessa meditabunda, 20% of Euschistus heros, and 5% Piezodorus guildinii.\nThis was about 48% improvement over the Colby's expected action."}, "[10]": {"settings": "Compound I alone (1:0), average of 0.0167, 0.0333 and 0.0667 weight %"}}, "note": "Read-outs that look alike come from different tables or passages of the source.", "data": [{"molecule": "Cc1c(COC(=O)[C@@H]2[C@H](/C=C(\\Cl)C(F)(F)F)C2(C)C)cccc1-c1ccccc1", "note": "(racemic) [Bifenthrin, bifenthrin, reference compound]", "values": [{"measurement": "Average % Control", "setting": "[1]; Bifenthrin alone (0:1), average of 0.0167 and 0.0333 weight %", "result": 41.6, "unit": "%"}]}, {"molecule": "CCN(C(=O)CCSCCC(F)(F)F)c1cn(-c2cccnc2)nc1Cl", "note": "[Compound I, N-(3-chloro-1-(pyridin-3-yl)-1H-pyrazol-4-yl)-N-ethyl-3-((3,3,3-trifluoropropyl)thio)propanamide]", "values": [{"measurement": "% Control Four Days After Treatment", "setting": "[2]", "result": 17, "unit": "%"}, {"measurement": "% Control Four Days After Treatment", "setting": "[3]; 0.0306 weight %", "result": 15.15, "unit": "%"}, {"measurement": "% Control Four Days After Treatment", "setting": "[3]; 0.0459 weight %", "result": 15.15, "unit": "%"}, {"measurement": "% Control Four Days After Treatment", "setting": "[4]; Example 11A", "result": 7.39, "unit": "%"}, {"measurement": "% Control Four Days After Treatment", "setting": "[4]; Example 11B", "result": 11.94, "unit": "%"}, {"measurement": "Average % Control", "setting": "[1]; [10]", "result": 9.34, "unit": "%"}, {"measurement": "Average % Control", "setting": "[5]; [10]", "result": 6.93, "unit": "%"}]}, {"molecule": "CCN(C(=O)CC[S+]([O-])CCC(F)(F)F)c1cn(-c2cccnc2)nc1Cl", "note": "(stereo not drawn) [Compound II, N-(3-chloro-1-(pyridin-3-yl)-1H-pyrazol-4-yl)-N-ethyl-3-((3,3,3-trifluoropropyl)sulfinyl)propanamide]", "values": [{"measurement": "% Control Three Days After Treatment", "setting": "[6]", "result": 20, "unit": "%"}, {"measurement": "% Control After Six Days of Treatment", "setting": "[7]", "result": 0, "unit": "%"}, {"measurement": "% Control Five Days After Treatment", "setting": "[8]", "result": 25, "unit": "%"}, {"measurement": "% Control Three Days After Treatment", "setting": "[9]; 0.10 weight %", "result": 12.5, "unit": "%"}, {"measurement": "% Control Three Days After Treatment", "setting": "[9]; 0.13 weight %", "result": 18.8, "unit": "%"}, {"measurement": "% Control Three Days After Treatment", "setting": "[9]; 0.20 weight %", "result": 6.3, "unit": "%"}]}, {"molecule": "CC1(C)C(C=C(Cl)Cl)C1C(=O)OC(C#N)c1cccc(Oc2ccccc2)c1", "note": "(stereo not drawn) [alpha-Cypermethrin, alpha-cypermethrin, reference compound]", "values": [{"measurement": "Average % Control", "setting": "[5]; alpha-Cypermethrin alone (0:1), average of 0.0167 and 0.0333 weight %", "result": 21.1, "unit": "%"}]}]}
